Assay results reported in BindingDB's records for doi:10.1021/jm011007+ (University of Perugia, 2002).
“And” between values parts separate entries of the source, which are not always exact repeats. Equal values may be shown once.

Tests used:
[1] = target: Sodium-dependent serotonin transporter (Homo sapiens, UniProt P31645); test: Inhibition of [125I]RTI-55 binding to human SERT in clonal cells
[2] = target: Sodium-dependent dopamine transporter (Homo sapiens, UniProt Q01959); test: Inhibition of radioligand [125I]RTI-55 binding to human Dopamine transporter in clonal cells
Sequence of Sodium-dependent dopamine transporter (Q01959 whole entry): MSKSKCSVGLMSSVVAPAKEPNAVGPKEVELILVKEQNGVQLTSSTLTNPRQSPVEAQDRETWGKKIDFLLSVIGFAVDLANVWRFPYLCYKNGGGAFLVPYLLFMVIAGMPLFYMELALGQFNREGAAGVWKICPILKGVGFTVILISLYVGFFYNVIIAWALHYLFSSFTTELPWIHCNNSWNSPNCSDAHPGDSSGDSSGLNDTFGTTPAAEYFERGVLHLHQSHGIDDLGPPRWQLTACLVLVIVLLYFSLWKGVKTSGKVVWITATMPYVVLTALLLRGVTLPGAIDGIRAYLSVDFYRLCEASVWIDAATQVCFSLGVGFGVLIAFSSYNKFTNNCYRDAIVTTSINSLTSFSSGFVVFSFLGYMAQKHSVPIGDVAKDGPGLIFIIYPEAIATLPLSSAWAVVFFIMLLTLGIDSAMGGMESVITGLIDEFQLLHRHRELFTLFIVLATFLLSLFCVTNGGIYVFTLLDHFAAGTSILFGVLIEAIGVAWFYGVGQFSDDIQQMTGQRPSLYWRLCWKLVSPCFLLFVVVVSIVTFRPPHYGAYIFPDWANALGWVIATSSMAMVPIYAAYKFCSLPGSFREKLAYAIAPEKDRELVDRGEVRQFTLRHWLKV

Sequence of Sodium-dependent serotonin transporter (P31645 whole entry): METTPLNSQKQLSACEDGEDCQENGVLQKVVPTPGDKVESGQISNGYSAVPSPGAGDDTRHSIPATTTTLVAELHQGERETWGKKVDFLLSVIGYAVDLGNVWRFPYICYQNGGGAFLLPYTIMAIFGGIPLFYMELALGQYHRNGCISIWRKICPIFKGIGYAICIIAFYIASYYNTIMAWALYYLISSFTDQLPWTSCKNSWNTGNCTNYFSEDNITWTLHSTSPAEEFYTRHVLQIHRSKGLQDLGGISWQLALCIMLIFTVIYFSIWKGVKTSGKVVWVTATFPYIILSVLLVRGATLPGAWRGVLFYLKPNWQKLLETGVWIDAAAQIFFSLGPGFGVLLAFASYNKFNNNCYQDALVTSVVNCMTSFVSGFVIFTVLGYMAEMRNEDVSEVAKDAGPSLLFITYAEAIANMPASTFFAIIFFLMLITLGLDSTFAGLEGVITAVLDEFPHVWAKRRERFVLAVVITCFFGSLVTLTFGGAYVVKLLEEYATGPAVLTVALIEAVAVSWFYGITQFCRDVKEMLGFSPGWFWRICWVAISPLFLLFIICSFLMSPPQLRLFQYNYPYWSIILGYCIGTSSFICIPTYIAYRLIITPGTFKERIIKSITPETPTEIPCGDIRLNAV

| SMILES | Kd [1] | Kd [2] [nM] |
| --- | --- | --- |
| O=C(CCCCN1CCN(CCCc2ccccc2)CC1)N(Cc1ccccc1)c1ccccc1 | 204 nM | 58 |
| C(=C\c1ccccc1)/CN1CCN(CCN(Cc2ccccc2)c2ccccn2)CC1 | 676 nM | 1000 |
| Fc1ccc(CN(CCN2CCN(CCCc3ccccc3)CC2)c2ccccn2)cc1 | 229 nM | 65 |
| O=C(/C=C/c1ccccc1Cl)N1CCN(CCOC(c2ccc(F)cc2)c2ccc(F)cc2)CC1 | 170 nM | 724 |
| c1ccc(CCCN2CCN(CCCCCN(Cc3ccccc3)c3ccccc3)CC2)cc1 | 234 nM | 32 |
| O=C(/C=C/c1c(Cl)cccc1Cl)N1CCN(CCOC(c2ccc(F)cc2)c2ccc(F)cc2)CC1 | 209 nM | 1510 |
| Fc1ccc(C(OCCN2CCN(C/C=C/c3ccccc3)CC2)c2ccccc2)cc1 (stereo unspecified) | 214 nM | 33 |
| O=C(CCCN1CCN(CCCc2ccccc2)CC1)N(Cc1ccccc1)c1ccccn1 | 1320 nM | 562 |
| Fc1ccc(/C=C/CN2CCN(CCOC(c3ccccc3)c3ccc(F)cc3)CC2)cc1 (stereo unspecified) | 200 nM | 23 |
| Cc1ccc(/C=C/C(=O)N2CCN(CCOC(c3ccc(F)cc3)c3ccc(F)cc3)CC2)cc1 | 195 nM | 794 |
| Clc1ccc(C(OCCN2CCN(C/C=C/c3ccccc3)CC2)c2ccc(Cl)cc2)cc1 | 331 nM | 38 |
| Brc1ccc(CN(CCN2CCN(CCCc3ccccc3)CC2)c2ccc(Br)cc2)cc1 | 1620 nM | 977 |
| C(=C\c1ccccc1)/CN1CCN(CCN(Cc2ccccc2)c2ccccc2)CC1 | 603 nM | 447 |
| Fc1ccc(C(OCCN2CCN(C/C=C/c3ccccc3)CC2)c2ccc(Cl)cc2Cl)cc1 (stereo unspecified) | 525 nM | 66 |
| COc1ccc(OC)c(/C=C/CN2CCN(CCOC(c3ccc(F)cc3)c3ccc(F)cc3)CC2)c1 | 182 nM | 3.8 |
| COc1ccc(/C=C/C(=O)N2CCN(CCOC(c3ccc(F)cc3)c3ccc(F)cc3)CC2)cc1 | 141 nM | 490 |
| Fc1ccc(CN(CCCN2CCN(CCCc3ccccc3)CC2)c2ccc(F)cc2)cc1 | 331 nM | 14 |
| Fc1ccc(C(OCCN2CCN(CCCc3ccc(Cl)cc3)CC2)c2ccc(F)cc2)cc1 | 155 nM | 8.1 |
| O=C(CN1CCN(CCCc2ccccc2)CC1)N(Cc1ccccc1)c1ccccc1 | 2880 nM | 1070 |
| c1ccc(CCCN2CCN(CCCN(Cc3ccccc3)c3ccccc3)CC2)cc1 | 759 nM and 758 nM | 10 |
| O=C(CCCN1CCN(CCCc2ccccc2)CC1)N(Cc1ccccc1)c1ccccc1 | 525 nM | 28 |
| Cc1ccc(/C=C/CN2CCN(CCOC(c3ccc(F)cc3)c3ccc(F)cc3)CC2)cc1 | 661 nM | 48 |
| Fc1ccc(C(OCCN2CCN(C/C=C/c3ccccc3)CC2)c2ccc(F)cc2)cc1 | 954 nM and 363 nM | – |
| COc1ccc(OC)c(/C=C/C(=O)N2CCN(CCOC(c3ccc(F)cc3)c3ccc(F)cc3)CC2)c1 | 204 nM | 562 |
| O=C(/C=C/c1ccc(Cl)cc1)N1CCN(CCOC(c2ccc(F)cc2)c2ccc(F)cc2)CC1 | 72 nM | 427 |
| Fc1ccc(C(OCCN2CCN(C/C=C/c3ccccc3)CC2)c2ccc(Cl)cc2)cc1 (stereo unspecified) | 191 nM | 3.9 |

| SMILES | Kd [1] | Kd [2] [nM] |
| --- | --- | --- |
| Fc1ccc(CCCN2CCN(CCOC(c3ccccc3)c3ccccc3)CC2)cc1 | 1820 nM | 40 |
| COc1ccc(N(CCN2CCN(CCCc3ccccc3)CC2)Cc2ccccc2)cc1 | 257 nM | 912 |
| COc1ccc(CN(CCN2CCN(C/C=C/c3ccccc3)CC2)c2ccccn2)cc1 | 229 nM | 2190 |
| COc1ccc(C(OCCN2CCN(C/C=C/c3ccccc3)CC2)c2ccccc2)cc1 (stereo unspecified) | 692 nM | – |
| Cc1ccc(C(OCCN2CCN(C/C=C/c3ccccc3)CC2)c2ccccc2)cc1 (stereo unspecified) | 1120 nM | 112 |
| Fc1ccc(/C=C/CN2CCN(CCOC(c3ccc(F)cc3)c3ccc(F)cc3)CC2)cc1 | 229 nM | 3.9 |
| COc1ccc(/C=C/CN2CCN(CCOC(c3ccc(F)cc3)c3ccc(F)cc3)CC2)cc1 [1-{2-[Bis-(4-fluoro-phenyl)-methoxy]-ethyl}-4-[(E)-3-(4-methoxy-phenyl)-allyl]-piperazine] | 372 nM | 65 |
| Fc1ccc(C(OCCN2CCN(CCCc3ccccc3)CC2)c2ccccc2)cc1 (stereo unspecified) | 617 nM | 20 |
| COc1ccc(CN(CCN2CCN(CCCc3ccccc3)CC2)c2ccccn2)cc1 | 162 nM | 219 |
| Cc1ccc(CN(CCN2CCN(CCCc3ccccc3)CC2)c2ccccc2)cc1 | 813 nM | 427 |
| c1ccc(CCCN2CCN(CCN(Cc3ccccc3)c3ccccn3)CC2)cc1 | 525 nM | 91 |
| COc1ccc(N(CCN2CCN(C/C=C/c3ccccc3)CC2)Cc2ccccc2)cc1 | 282 nM | – |
| CN(CCc1ccccc1)CCN1CCN(CCCc2ccccc2)CC1 | 2630 nM | 550 |
| c1ccc(CCCN2CCN(CCN(Cc3ccccc3)c3ccccc3)CC2)cc1 | 1200 nM | 219 |
| Fc1ccc(C(OCCN2CCN(C/C=C/Cc3ccccc3)CC2)c2ccc(F)cc2)cc1 | 72 nM | 5.1 |
| Fc1ccc(CN(CCCN2CCN(CCCc3ccccc3)CC2)c2ccccn2)cc1 | 282 nM | 11 |
| Fc1ccc(CCCN2CCN(CCOC(c3ccc(F)cc3)c3ccc(F)cc3)CC2)cc1 | 363 nM | 5.6 |
| c1ccc(CCCN2CCN(CCCCN(Cc3ccccc3)c3ccccc3)CC2)cc1 | 132 nM | 14 |
| Fc1ccc(CCCN2CCN(CCOC(c3ccccc3)c3ccc(F)cc3)CC2)cc1 (stereo unspecified) | 468 nM | 31 |
| Fc1ccc(C(OCCN2CCN(Cc3ccccc3)CC2)c2ccc(F)cc2)cc1 | 182 nM | 98 |
| Fc1ccc(/C=C/CN2CCN(CCOC(c3ccccc3)c3ccccc3)CC2)cc1 | 1320 nM | 16 |
| COc1ccc(CN(CCCN2CCN(CCCc3ccccc3)CC2)c2ccccn2)cc1 | 59 nM | 16 |
| Fc1ccc(C(OCCN2CCN(C/C=C/c3ccc(Cl)cc3)CC2)c2ccc(F)cc2)cc1 | 813 nM | 22 |
| c1ccc(CCCN2CCN(CCCN(Cc3ccccc3)c3ccccn3)CC2)cc1 | 2290 nM | 107 |
| COc1cccc(C(OCCN2CCN(C/C=C/c3ccccc3)CC2)c2cccc(Br)c2)c1 (stereo unspecified) | 741 nM | 132 |
| Fc1ccc(CN(CCN2CCN(CCCc3ccccc3)CC2)c2ccc(F)cc2)cc1 | 269 nM | 52 |
